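Values below derive from 48-hour exposures of cells grown in 96-well plates, with endpoints linearly interpolated between the two concentrations bracketing the appropriate inhibition level. Here, GI50 denotes the concentration required for 50% inhibition of growth. Definition used: TGI = concentration required for complete inhibition of growth.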
Legend:
Assay in all cases: NCI anticancer screen, dose series, 48 h
M14 melanoma = test system: M14 melanoma
MOLT-4 leukemia = test system: MOLT-4 leukemia
NCI-H460 lung = test system: NCI-H460 lung
MALME-3M melanoma = test system: MALME-3M melanoma
HOP-62 NSCLC = test system: HOP-62 NSCLC
RXF 393 renal = test system: RXF 393 renal
K-562 leukemia = test system: K-562 leukemia
CAKI-1 renal = test system: CAKI-1 renal
T-47D breast = test system: T-47D breast
HOP-92 NSCLC = test system: HOP-92 NSCLC

| Structure (SMILES) | GI50 (M14 melanoma) [µM] | TGI (M14 melanoma) [µM] | GI50 (MOLT-4 leukemia) [µM] | TGI (MOLT-4 leukemia) [µM] | GI50 (NCI-H460 lung) [µM] | TGI (NCI-H460 lung) [µM] | GI50 (MALME-3M melanoma) [µM] | TGI (MALME-3M melanoma) [µM] | GI50 (HOP-62 NSCLC) [µM] | TGI (HOP-62 NSCLC) [µM] | GI50 (RXF 393 renal) [µM] | TGI (RXF 393 renal) [µM] | GI50 (K-562 leukemia) [µM] | TGI (K-562 leukemia) [µM] | GI50 (CAKI-1 renal) [µM] | TGI (CAKI-1 renal) [µM] | GI50 (T-47D breast) [µM] | TGI (T-47D breast) [µM] | GI50 (HOP-92 NSCLC) [nM] | TGI (HOP-92 NSCLC) [µM] |
| --- | --- | --- | --- | --- | --- | --- | --- | --- | --- | --- | --- | --- | --- | --- | --- | --- | --- | --- | --- | --- |
| O=CC(OC(=O)c1ccccc1)C(OC(=O)c1ccccc1)C(COC(c1ccccc1)(c1ccccc1)c1ccccc1)OC(=O)c1ccccc1 (configuration not stated) | 14 | 30.3 | 2.64 | 11.7 | 17.1 | 37.8 | 30.3 | 95.2 | 18.3 | 32.6 | 4.11 | 21.1 | 8.09 | 27.4 | 25.1 | 72.2 | 4.65 | 22.7 | – | – |
| CCN(C(=O)N1CCN(c2cc3c(cc2F)c(=O)c(C(=O)O)cn3C2CC2)CC1)c1nc(-c2ccccc2)cs1 | 3.16 | > 100 | – | – | 3.11 | > 100 | 2.77 | 9.06 | 2.82 | > 100 | 2.52 | 8.88 | 3.2 | > 100 | 2.58 | 10.3 | 2.57 | > 100 | 2170 | 7.53 |
| O=C1Cc2c(-c3ccccc3)cc(-c3ccccc3)nc2-c2ccccc2N1 | – | 17.5 | – | – | – | 29.6 | – | > 100 | – | 7.73 | – | > 100 | – | > 100 | – | 19.9 | – | 38.4 | – | > 100 |
| O=C(Nc1ccc(OS(=O)(=O)c2ccc(F)cc2)cc1)C12CC3CC(CC(C3)C1)C2 | 8.12 | > 100 | – | – | 8.09 | > 100 | 9.13 | 54.4 | 11.3 | 30.6 | 3.15 | 22.5 | 0.319 | > 100 | 29.4 | > 100 | 0.831 | > 100 | 3450 | 18.1 |
| COC(=O)c1cc(-c2ccc3ccccc3c2)[nH]c(=O)c1C#N | – | > 100 | – | – | – | > 100 | – | > 100 | – | > 100 | – | > 100 | – | – | – | > 100 | – | > 100 | – | > 100 |
| Cc1cc(S(=O)(=O)/N=C(\N)Nc2cccc(O)c2)c(SCc2ccccc2)cc1Cl | 11.1 | 26.7 | 9.06 | > 100 | – | – | 27.9 | 63.9 | 15.1 | 31.7 | 16.2 | 39.9 | 8.28 | > 100 | 16 | 34.2 | 19.4 | 75.7 | 9890 | 36.3 |
| CN1CCN(CCCOc2cccc3nc(Nc4cc(Cl)cc(Cl)c4)ccc23)CC1 | 1.73 | 3.28 | – | – | 1.84 | 3.43 | 1.92 | 3.7 | 1.37 | 2.81 | 1.67 | 3.22 | – | – | 2.97 | 11.7 | 1.79 | 3.76 | 1590 | 4.82 |
| CC(C)C[C@H](CC(=O)O)C(=O)N[C@@H](Cc1c[nH]c2ccccc12)C(=O)N[C@@H](C)c1ccccc1 | > 25 | > 25 | > 25 | > 25 | > 25 | > 25 | > 25 | > 25 | > 25 | > 25 | > 25 | > 25 | > 25 | > 25 | > 25 | > 25 | > 25 | > 25 | – | – |
| CCn1cnc(C[C@H](NC(=O)[C@H](CCCCNC(=O)Nc2cc(C(F)(F)F)cc(C(F)(F)F)c2)NC(=O)Nc2cc(C(F)(F)F)cc(C(F)(F)F)c2)C(=O)OC)c1 | 6.29 | > 10 | – | – | 3.43 | > 10 | > 10 | > 10 | 9.32 | > 10 | 4.24 | > 10 | – | – | > 10 | > 10 | 4.83 | > 10 | 2240 | 9.81 |
| Cc1cc(F)c(C(=O)Nc2cccc(-c3nncn3C(C)C)n2)cc1-n1cnc(C2CC2)c1 | – | – | 10.1 | 54.2 | 14.5 | 96.4 | 23.3 | 72.1 | 16.6 | 58.8 | 20.6 | 49.1 | – | – | 10.5 | > 100 | 2.01 | 9.95 | 8230 | > 100 |
| COc1ccc2[nH]c(Cl)c(/C=C3/C(=O)Nc4ccccc43)c2c1 | 0.254 | 1.23 | – | – | 1.25 | > 34.8 | 0.643 | 2.26 | 0.523 | 1.27 | 0.381 | 6.92 | 0.444 | 13.2 | 0.673 | 1.75 | 5.4 | 84.5 | 1990 | 4.09 |
| Oc1ccc2ccccc2c1CCc1c(O)ccc2ccccc12 | – | 29.5 | – | – | – | 22.2 | – | 26.9 | – | 28.2 | – | 27.5 | – | 24.9 | – | 20.5 | – | 12.5 | – | 24.7 |
